Source: paper PMC12154284, “FYCO1 Peptide Analogs: Design and Characterization of Autophagy Inhibitors as Co-Adjuvants in Taxane Chemotherapy of Prostate Cancer” (International Journal of Molecular Sciences, 2025)
Entries after “also recorded” stand apart in the source; their conditions may differ. Blank lines part the entries; values can stand above or below the compound they belong to.

Columns and labels:
PC cells = settings: with Doc, cited from earlier work
Text: (§1) Many studies have analyzed the nature of autophagy activated by Doc in PC and the impact of autophagy inhibitors on cell proliferation. The results obtained using 3-Methyladenine (3-MA) in association with Doc were contradictory. […] A more convincing result was obtained using the autophagy inhibitor CQ which enhanced the action ...

PC-3 cells [1] = settings: with Doc; ref [45]; cited from earlier work
Text: as §1

[2] = target: human recombinant His-tagged LC3B (Homo sapiens, UniProt Q9GZQ8); experiment: MST binding to human recombinant His-tagged LC3B; settings: Table S1
[3] = Peptide aggregation in MST capillaries; format: physicochemical
Protocol: This technique enables the determination of the dissociation constant (Kd) across a concentration range spanning from 1 picomolar (pM) to the millimolar (mM) level. The experimental conditions mirrored those in our previously published work. […] A constant concentration of red-labelled LC3B (10 nM) was incubated with sixteen 1:1 serial dilutions of peptides (concentration details are consultable in the Supplementary Materials, Table S1). PBS-T (phosphate-buffered saline + 0.05% Tween™ 20), from NanoTemper Technologies, with 2.5% dimethyl sulfoxide (DMSO) (Product No. D8418; Sigma-Aldrich, Saint Louis, MO, USA) was used as buffer. After 15 min of incubation at room temperature, samples were loaded into standard capillaries (Product No. MO-K022; NanoTemper Technologies) and analyzed at 25 °C with 20% excitation power and medium MST power (40%) using the “Binding Affinity” mode available in the MO.Control v1.6 software (NanoTemper Technologies GmbH, München, Germany). Prior to Kd determination, peptide auto-fluorescence was assessed. […] The “Capillary Scan” graphs, showing the fluorescence homogeneity in the capillaries of all biophysically tested peptides, are provided in the Supplementary Materials, Figure S5.

[4] = tested on: cleaved caspase-3 in PC-3 cells; experiment: Western blot of cleaved caspase-3 in PC-3 cells; format: cell-based, Human; settings: AM10, Doc (25 nM) or both, 48 h
Protocol: (§2) PC-3 cells were plated at 2 × 10^5 cells/dish in 6 cm dishes and treated with different compounds. At the end of the treatments the cells were lysed in RIPA buffer. Protein extracts (15–35 μg) were resuspended in presence of reducing Sample buffer (Bio-Rad Laboratories, Segrate, Milano, Italy), heated at 95 °C for 5 min and separated by SDS-PAGE WB. Proteins were transferred onto nitrocellulose or PVDF membranes. After blocking with nonfat dried milk, membranes were incubated with anti-ATG5 (1:1000) (#12994) Cell Signaling Technology Inc. (Boston, MA, USA), anti-LC3 (1:1000) (L8918) (Sigma-Aldrich), anti-SQSTM1/p62 (1:2000) (PA5-20839) (Thermo Fisher Scientific, Waltham, MA, USA), anti-cleaved-caspase-3 (1:500) (#9664) Cell Signaling Technology Inc. primary antibodies overnight at 4 °C. Horseradish peroxidase (HRP) conjugated secondary anti-rabbit or anti-mouse antibodies were used for 1 h at room temperature and the membranes were processed using chemiluminescence kit Cyanagen Ultra (Cyanagen, Bologna, Italy). In each WB experiment alpha-tubulin expression (T6199) (Sigma-Aldrich, St. Louis, MO, USA) was evaluated as a protein control. Relative optical density of the bands was assessed by ImageJ software (version 1.54g). Uncropped WB images are available in the Supporting Information.

DU145 cells = experiment: MTT cell viability, DU145 (ATG5-deficient); format: cell-based, Human; settings: 72 h, dose printed 5 mM, n = 6
Protocol: (§3) The study was conducted on several cancer cells. Human CRPC cell lines (PC-3 and DU145) were purchased from the American Type Culture Collection (ATCC, Manassas, VA, USA) and cultured at 37 °C and 5% CO2 in RPMI 1640 (EuroClone, Milano, Italy) supplemented, respectively, with 7.5% (PC3) and 5% (DU145) FBS (Gibco, ThermoFisher Scientific, Waltham, MA, USA), 1% L-glutamine, and antibiotics (100 IU/mL penicillin G). […]
(§4) For viability studies, MTS (Cell Titer 96 Aqueous One Solution Cell Proliferation Assay) (Promega, Nacka, Sweden) and 3-(4,5-dimethylthiazole-2-yl)-2,5-diphenyltetrazolium bromide (MTT) (Sigma-Aldrich, St. Louis, MO, USA) assays were conducted. […] The absorbance (λ = 550 nm) was measured by an EnSpire Multimode Plate reader (Perkin Elmer, Milano, Italy). The absorbance value of untreated cells was set at 100% (control), and the viability of treated cells was expressed as a percentage of the control. […] After 72 h, cell viability was assessed using an MTS assay according to the manufacturer’s protocol using a 96-well-plate spectrophotometer (Varioskan Flash Multimode Reader; ThermoFisher Scientific, Waltham, MA, USA) set at λ = 490 nm. The absorbance value of untreated cells was set at 100% (control), and the viability of treated cells was expressed as a percentage of the control. […]

p62 in PC-3 cells = experiment: Western blot of p62 (SQSTM1) in PC-3 cells; format: cell-based, Human; settings: 72 h and 96 h
Protocol: as §2

A549 cells = experiment: MTS cell viability, A549; format: cell-based, human; settings: 72 h, 0.0025 to 5 μM, n = 4
Protocol: as §3, §4

A375 cells = experiment: MTS cell viability, A375; format: cell-based; settings: 72 h, 0.0025 to 5 μM, n = 4
Protocol: as §3, §4

PC-3 cells [5] = experiment: MTT cell viability, PC-3; format: cell-based, Human
Protocol: The study was conducted on several cancer cells. Human CRPC cell lines (PC-3 and DU145) were purchased from the American Type Culture Collection (ATCC, Manassas, VA, USA) and cultured at 37 °C and 5% CO2 in RPMI 1640 (EuroClone, Milano, Italy) supplemented, respectively, with 7.5% (PC3) and 5% (DU145) FBS (Gibco, ThermoFisher Scientific, Waltham, MA, USA), 1% L-glutamine, and antibiotics (100 IU/mL penicillin G). Luminal A MCF-7 breast cancer cells (ATCC, Manassas, VA, USA) were cultured in Dulbecco’s Modified Eagle Medium/Nutrient Mixture F-12 (DMEM-F12, Gibco Laboratories, Waltham, MA, USA) supplemented with 10% fetal bovine serum (FBS, Gibco Laboratories, Waltham, MA, USA), 1% penicillin/streptomycin (Gibco Laboratories), and 1% L-glutamine (Gibco Laboratories). A549 human lung cancer cell line (ATCC, Manassas, VA, USA) were cultured in Dulbecco’s modified eagle medium (DMEM, Lonza, Switzerland) supplemented with 10% FBS (Gibco Laboratories, Waltham, MA, USA), 1% of 100 u/mL penicillin/streptomycin (Gibco Laboratories), and 1% L-glutamine (Gibco Laboratories). […]
as §4

MCF-7 cells = experiment: MTS cell viability, MCF-7; format: cell-based; settings: 72 h, 0.0025 to 5 μM, n = 4
Protocol: as §3, §4

autophagy in PC-3 cells = experiment: Autophagosome formation and autophagic flux in PC-3 cells (LC3-I, LC3-II, p62); format: cell-based, Human; settings: as evidenced by LC3-I
Protocol: as §2

[6] = tested on: LC3-I and LC3-II in PC-3 cells; experiment: Western blot of LC3-I and LC3-II in PC-3 cells; format: cell-based, Human; settings: for LC3-I / LC3-II expression, Doc/AM10 experiment: AM10, Doc (25 nM) or both
Protocol: as §2

autophagic response = settings: CRPC therapy; ref [39]; cited from earlier work
Text: An important problem of tumor is represented by therapy resistance. In fact, in prostate cancer, numerous studies have investigated the implications of autophagy in resistance to hormonal therapies or chemotherapeutic agents. […] Docetaxel (Doc), a chemotherapeutic drug which inhibits microtubule depolymerization, represents the first-line treatment for metastatic CRPC. The treatment is effective in the early stages, but over time its efficacy is drastic ...

[7] = tested on: breast and colon cancer cells; settings: ref [32]; cited from earlier work
Text: The growing applications of bromine and iodine substituents in anticancer treatment lend ...

LC3B (Homo sapiens) = LC3B (Homo sapiens) (UniProt Q9GZQ8); settings: cited from earlier work

Compound: Cn1cnc(N)c2ncnc1-2 [3-MA, 3-Methyladenine]
effect on chemotherapy efficacy (PC cells; ref [43],[47],[48]): decreased the chemotherapy efficacy
effect on cytotoxic action of Doc (PC cells; ref [46] Hu and collaborators): enhanced the cytotoxic action of Doc
effect on cytotoxicity of Doc in PC-3 cells (PC-3 cells [1]): does not modify the cytotoxicity of Doc in PC-3 cells

Response Amplitude (RA) [2]: 7.8
Compound: CC[C@H](C)[C@H](NC(=O)[C@H](CC(=O)O)NC(=O)[C@H](Cc1ccc(I)cc1)NC(=O)[C@@H](NC(=O)[C@H](C)NC(=O)[C@@H](N)CC(=O)O)C(C)C)C(=O)N[C@H](C(=O)N[C@H](C(=O)N[C@@H](CC(=O)O)C(=O)N[C@@H](CCC(=O)O)C(=O)N[C@@H](CCC(=O)O)C(=O)N[C@@H](CC(C)C)C(=O)O)[C@@H](C)O)[C@@H](C)CC [AM2]

Response Amplitude (RA) [2]: 3.7
concentration at which aggregation is displayed ([3]; MST buffer PBS-T + 2.5% DMSO, 25 °C): ≥ 31.25 µM
Compound: CC[C@H](C)[C@H](NC(=O)[C@H](CC(=O)O)NC(=O)[C@H](Cc1ccccc1)NC(=O)[C@@H](NC(=O)[C@H](C)NC(=O)[C@@H](N)CC(=O)O)C(C)C)C(=O)N[C@H](C(=O)N[C@H](C(=O)N[C@H]1CSCc2ccc(cc2)CSC[C@@H](C(=O)O)NC(=O)[C@H](CCC(=O)O)NC(=O)[C@H](CCC(=O)O)NC1=O)[C@@H](C)O)[C@@H](C)CC [AM7]
aggregation at highest concentrations, in words ([3]; 125, 62.5 and 31.25 µM, MST capillary scan, PBS-T + 2.5% DMSO): the three highest concentration points (125, 62.5, and 31.25 µM) were discarded due to aggregation; also recorded: the three highest concentrations (125, 62.5, and 31.25 µM) were excluded from analysis due to aggregation phenomena

Response Amplitude (RA) [2]: 2.8
Compound: CC[C@H](C)[C@H](NC(=O)[C@H](CC(=O)O)NC(=O)[C@H](Cc1ccc(I)cc1)NC(=O)[C@@H](NC(=O)[C@H](C)NC(=O)[C@@H](N)CC(=O)O)C(C)C)C(=O)N[C@@H](CCSC)C(=O)N[C@H](C(=O)N[C@H]1CSSC[C@@H](C(=O)O)NC(=O)[C@H](CCC(=O)O)NC(=O)[C@H](CCC(=O)O)NC1=O)[C@@H](C)O [AM10]
cleaved caspase-3 / apoptosis [4]: does not induce caspase-3 activation
DU145 cell viability (DU145 cells): no effect on cell viability
p62 expression (p62 in PC-3 cells): the expression of p62 increases significantly
A549 cell viability (A549 cells): concentration-dependent reduction in cell viability
A375 cell viability (A375 cells): concentration-dependent reduction in cell viability
PC-3 cell viability (PC-3 cells [5]; MTT, 72 h, 0.0025-5 μM (method), n = 6): all peptides reduce cell viability in a significant dose-dependent manner starting from the 0.025 mM dose up to the 5 mM dose
PC-3 cell viability (Conclusions) (PC-3 cells [5]; summary statement): diminished cell viability
MCF-7 cell viability (MCF-7 cells): concentration-dependent reduction in cell viability
autophagosome formation and autophagic flux (Conclusions) (autophagy in PC-3 cells): inhibited autophagosome formation and autophagic flux
LC3-I and LC3-II expression, 48 h ([6]; 5 µM, 48 h): significantly reduced the level of LC3-I and LC3-II
LC3-I and LC3-II expression, 72 h ([6]; 72 h): retains the ability to inhibit both LC3-I and LC3-II
LC3-I / LC3-II expression, Doc/AM10 experiment ([6]; 48 h): reduces the expression of both LC3-I and LC3-II

Compound: C[C@]12CC[C@H](O)CC1=CC[C@@H]1[C@@H]2CC[C@]2(C)C(c3cccnc3)=CC[C@@H]12 [Abiraterone]
autophagic response (autophagic response): activate an autophagic response that reduces their effectiveness

Compound: CCN(CC)CCCC(C)Nc1ccnc2cc(Cl)ccc12 (stereo not shown) [CQ, Chloroquine]
effect on the action of Doc (PC cells; ref [49]): enhanced the action of Doc by reducing resistance to chemotherapy

Compound: CC(=O)O[C@@]12CO[C@@H]1C[C@H](O)[C@@]1(C)C(=O)[C@H](O)C3=C(C)[C@@H](OC(=O)[C@H](O)[C@@H](NC(=O)OC(C)(C)C)c4ccccc4)C[C@@](O)([C@@H](OC(=O)c4ccccc4)[C@H]21)C3(C)C [Doc, Docetaxel, reference compound]
cleaved caspase-3 / apoptosis [4]: trigger apoptotic cell death by activating the executor caspase-3
PC-3 cell viability, Docetaxel (PC-3 cells [5]; MTT, 48 h, 1-100 nM): significant reduction in cell viability at concentrations of 10 nM, 25 nM, 50 nM, and 100 nM, with a dose-dependent effect
LC3-I / LC3-II expression, Doc/AM10 experiment ([6]; 48 h): significant increase in LC3-II expression

Compound: CNC(=O)c1ccc(N2C(=S)N(c3ccc(C#N)c(C(F)(F)F)c3)C(=O)C2(C)C)cc1F [Enzalutamide]
autophagic response (autophagic response): activate an autophagic response that reduces their effectiveness

Compound: Cc1ccc(S(=O)(=O)[N-]Br)cc1.[Na+] [bromamine T]
cytotoxic effects against breast and colon cancer cells [7]: strong cytotoxic effects against breast and colon cancer cells

Compound: FYCO1-LIR peptide
Kd (LC3B (Homo sapiens)): 3.1 µM
